{"source": "patent US6211425A", "about": "“Patch” (Saitama Daiichi Seiyaku Kabushiki Kaisha, priority 1996, dated 2001)", "key": {"[1]": {"test": "percutaneous absorption of formoterol (finding of the inventors)", "conditions": "formoterol and/or salts thereof not in a dissolved state"}, "[2]": {"test": "hydrolytic stability of formoterol (general statement)", "format": "physicochemical", "conditions": "preparations having high water contents"}}, "note": "“Also recorded” adds a separate entry of the source.", "data": [{"smiles": "COc1ccc(CC(C)NCC(O)c2ccc(O)c(NC=O)c2)cc1", "note": "(centres unmarked) [formoterol]", "values": [{"measurement": "percutaneous absorption", "setting": "[1]", "value": "extremely poor percutaneous absorption"}, {"measurement": "hydrolysis", "setting": "[2]", "value": "hydrolyzed; also recorded: easily hydrolyzable"}]}]}
